In US20230322846A9, “NEUROACTIVE STEROIDS AND THEIR METHODS OF USE” (SAGE THERAPEUTICS, INC., priority 2018, published 2023):

target: [35S]-TBPS binding, rat brain cortical membranes; test: Steroid inhibition of [35S]-TBPS binding; conditions: 3 nM [35S]-TBPS, in the presence of 5 mM GABA
Procedure, shortened: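 In the presence of […], compounds (DMSO 0.5% final) competed with 3 nM [35S]-TBPS for Sprague-Dawley rat cortical membranes, pH 7.4 phosphate buffer, 90 min, room temperature. Filtration and scintillation counting; specific binding defined by […]; IC50 and maximal inhibition fitted per experiment, averaged as mean ± SEM.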

SMILES | IC50 [µM]
CC[C@@]1(O)CC[C@@]2(C)[C@H](CC[C@@H]3[C@@H]2CC[C@]2(C)[C@@H]([C@H](C)Cn4nccc4C#N)CC[C@@H]32)C1 [Example 64, 1-((S)-2-((3R,5R,8R,9S,10S,13S,14S,17R)-3-ethyl-3-hydroxy-10,13-dimethylhexadecahydro-1H-cyclopenta[a]phenanthren-17-yl)propyl)-1H-pyrazole-5-carbonitrile] | < 0.1
CCC[C@@]1(O)CC[C@H]2[C@@H](CC[C@@H]3[C@@H]2CC[C@]2(C)[C@@H]([C@@H](C)Cn4cc(C#N)cn4)CC[C@@H]32)C1 [Example 349, 1-((R)-2-((3R,5S,8R,9R,10S,13S,14S,17R)-3-hydroxy-13-methyl-3-propylhexadecahydro-1H-cyclopenta[a]phenanthren-17-yl)propyl)-1H-pyrazole-4-carbonitrile] | ≥ 10
CCC[C@@]1(O)CC[C@@]2(C)[C@H](CC[C@H]3[C@@H]4CC[C@H](C(C)Cn5cc(C#N)cn5)[C@@]4(C)CC(=O)[C@@H]32)C1 (stereo in doubt) [Example 340, 1-((R)-2-((3R,5R,8S,9S,10S,13S,14S,17R)-3-hydroxy-10,13-dimethyl-11-oxo-3-propylhexadecahydro-1H-cyclopenta[a]phenanthren-17-yl)propyl)-1H-pyrazole-4-carbonitrile] | < 0.1
C[C@H](Cn1cc(C#N)cn1)[C@H]1CC[C@H]2[C@@H]3CC[C@@H]4C[C@](C)(O)CC[C@@H]4[C@H]3CC[C@]12C [Example 52, 1-((S)-2-((3R,5R,8R,9R,10S,13S,14S,17R)-3-hydroxy-3,13-dimethylhexadecahydro-1H-cyclopenta[a]phenanthren-17-yl)propyl)-1H-pyrazole-4-carbonitrile] | < 0.1
CC[C@@]1(O)CC[C@@]2(C)[C@H](CC[C@@H]3[C@@H]2CC[C@]2(C)[C@@H]([C@@H](C)Cn4nccc4C#N)CC[C@@H]32)C1 [Example 63, 1-((R)-2-((3R,5R,8R,9S,10S,13S,14S,17R)-3-ethyl-3-hydroxy-10,13-dimethylhexadecahydro-1H-cyclopenta[a]phenanthren-17-yl)propyl)-1H-pyrazole-5-carbonitrile] | < 0.1
COC[C@@]1(O)CC[C@H]2[C@H](CC[C@@H]3[C@@H]2CC[C@]2(C)[C@@H]([C@H](C)Nc4ccc(C#N)cc4C)CC[C@@H]32)C1 [Example 253] | 1 to 10
COC[C@@]1(O)CC[C@H]2[C@H](CC[C@@H]3[C@@H]2CC[C@]2(C)[C@@H](CCn4nnnc4C)CC[C@@H]32)C1 [Example 48, (3R,5R,8R,9R,10S,13R,14S,17R)-3-(methoxymethyl)-13-methyl-17-(2-(5-methyl-1H-tetrazol-1-yl)ethyl)hexadecahydro-1H-cyclopenta[a]phenanthren-3-ol] | < 0.1
C[C@@H](Cn1cc(C#N)cn1)[C@H]1CC[C@H]2[C@@H]3CC[C@@H]4C[C@](C)(O)CC[C@@H]4[C@H]3CC[C@]12C [Example 51, 1-((R)-2-((3R,5R,8R,9R,10S,13S,14S,17R)-3-hydroxy-3,13-dimethylhexadecahydro-1H-cyclopenta[a]phenanthren-17-yl)propyl)-1H-pyrazole-4-carbonitrile] | < 0.1
C[C@@H]([C@H]1CC[C@H]2[C@@H]3CC[C@@H]4C[C@](C)(O)CC[C@@H]4[C@H]3CC[C@]12C)n1cc(C#N)cn1 [Example 157, 1-((S)-1-((3R,5R,8R,9R,10S,13S,14S,17S)-3-hydroxy-3,13-dimethylhexadecahydro-1H-cyclopenta[a]phenanthren-17-yl)ethyl)-1H-pyrazole-4-carbonitrile] | 1 to 10
CCC[C@@]1(O)CC[C@@]2(CC)[C@H](CC[C@H]3[C@@H]4CC[C@H]([C@H](C)Cn5cc(C#N)cn5)[C@@]4(C)CC[C@@H]32)C1 [Example 302, 1-((S)-2-((3R,5R,8S,9S,10S,13S,14S,17R)-10-ethyl-3-hydroxy-13-methyl-3-propylhexadecahydro-1H-cyclopenta[a]phenanthren-17-yl)propyl)-1H-pyrazole-4-carbonitrile] | < 0.1
CCC[C@@]1(O)CC[C@@]2(COC)[C@H](CC[C@H]3[C@@H]4CC[C@H]([C@@H](C)Cn5nnnc5C)[C@@]4(C)CC[C@@H]32)C1 [Example 321, (3R,5R,8S,9S,10R,13S,14S,17R)-10-(methoxymethyl)-13-methyl-17-((R)-1-(5-methyl-1H-tetrazol-1-yl)propan-2-yl)-3-propylhexadecahydro-1H-cyclopenta[a]phenanthren-3-ol] | < 0.1
CCOC[C@@]1(O)CC[C@H]2[C@H](CC[C@@H]3[C@@H]2CC[C@]2(C)[C@@H]([C@@H](C)Cn4cc(C#N)cn4)CC[C@@H]32)C1 [Example 269, 1-((R)-2-((3R,5R,8R,9R,10S,13S,14S,17R)-3-(ethoxymethyl)-3-hydroxy-13-methylhexadecahydro-1H-cyclopenta[a]phenanthren-17-yl)propyl)-1H-pyrazole-4-carbonitrile] | < 0.1
CCC[C@@]1(O)CC[C@H]2[C@H](CC[C@@H]3[C@@H]2CC[C@]2(C)[C@@H]([C@H](C)Cn4cc(C#N)cn4)CC[C@@H]32)C1 [Example 66, 1-((S)-2-((3R,5R,8R,9R,10S,13S,14S,17R)-3-hydroxy-13-methyl-3-propylhexadecahydro-1H-cyclopenta[a]phenanthren-17-yl)propyl)-1H-pyrazole-4-carbonitrile] | < 0.1
CCC[C@@]1(O)CC[C@H]2[C@@H](CC[C@@H]3[C@@H]2CC[C@]2(C)[C@@H]([C@H](C)Cn4cc(C#N)cn4)CC[C@@H]32)C1 [Example 350, 1-((S)-2-((3R,5S,8R,9R,10S,13S,14S,17R)-3-hydroxy-13-methyl-3-propylhexadecahydro-1H-cyclopenta[a]phenanthren-17-yl)propyl)-1H-pyrazole-4-carbonitrile] | ≥ 10
CCOC[C@@]1(O)CC[C@H]2[C@H](CC[C@@H]3[C@@H]2CC[C@]2(C)[C@@H]([C@@H](C)Cn4nccn4)CC[C@@H]32)C1 [Example 266, (3R,5R,8R,9R,10S,13S,14S,17R)-17-((R)-1-(2H-1,2,3-triazol-2-yl)propan-2-yl)-3-(ethoxymethyl)-13-methylhexadecahydro-1H-cyclopenta[a]phenanthren-3-ol] | 0.1 to 1
CCOC[C@@]1(O)CC[C@@]2(C)[C@H](CC[C@@H]3[C@@H]2CC[C@]2(C)[C@@H]([C@H](C)N[C@@H](C)c4ccccc4)CC[C@@H]32)C1 [Example 212] | 1 to 10
C[C@@]1(O)CC[C@H]2[C@H](CC[C@@H]3[C@@H]2CC[C@]2(C)[C@@H](CN4CC[C@@H](c5ccccc5)C4=O)CC[C@@H]32)C1 [Example 11, (S)-1-(((3R,5R,8R,9R,10S,13S,14S,17S)-3-hydroxy-3,13-dimethylhexadecahydro-1H-cyclopenta[a]phenanthren-17-yl)methyl)-3-phenylpyrrolidin-2-one] | 0.1 to 1
C[C@@H]([C@H]1CC[C@H]2[C@@H]3CC[C@@H]4C[C@](C)(O)CC[C@@H]4[C@H]3CC[C@]12C)n1ncc(C#N)c1N [Example 155, 5-amino-1-((S)-1-((3R,5R,8R,9R,10S,13S,14S,17S)-3-hydroxy-3,13-dimethylhexadecahydro-1H-cyclopenta[a]phenanthren-17-yl)ethyl)-1H-pyrazole-4-carbonitrile] | 1 to 10

target: human GABAA receptors composed of the α1β2γ2 subunits (Homo sapiens (Human), UniProt P14867+P18507+P47870); test: α1β2γ2 SyncroPatch automated patch clamp assay; assay type: cell-based; conditions: HEK cells, potentiation of submaximal GABA current, clamped at −120 mV
Method: (§1) The SyncroPatch 384PE (Nanion, Germany) automated patch clamp platform was used to obtain recordings from human embryonic kidney cells stably expressing human GABAA receptors composed of the α1β2γ2 and α4β3δ subunits. Cells were bathed in an extracellular solution containing: 140 mM NaCl, 4 mM KCl, 2 mM CaCl2), 1 mM MgCl2, 10 mM HEPES, 5 mM glucose and 0.1% DMSO. Solution was maintained at pH 7.4 with NaOH and 300 mOsm/L. Chips with multi-hole (4×) medium resistance (2-3M) are used for the recombinant cell line experiments. Once harvested, cells are stored in extracellular solution set to 10° C. in the cell hotel with a minimum shaking speed of 200 rpm before addition to the chip at the beginning of each experiment. Whole cell patch clamp recordings were made using an intracellular solution containing: 90 mM KCl, 50 mM KF, 1.5 mM MgCl2, 11.1 mM EGTA and 10 mM HEPES, 2 mM NaATP, maintained at pH 7.2 with KOH. Currents are leak corrected (using P/2 leak correction protocol) and sampled at 5 kHz. Cells were clamped at −120 mV. After establishing a stable baseline, a submaximal concentration of GABA (3-5 μM for cells expressing α1β2γ2 and 10 μM for cells expressing […]) was applied at a rate of 10 μl/second, immediately followed by application of GABA+compound (10 μl/second) at a single concentration of compound per cell. Compounds were tested at six concentrations (0.029, 0.12, 0.47, 1.88, 7.5, and 30 μM) in n=8-12 cells per concentration. Compound effect was determined by dividing peak current amplitude after GABA+compound by peak current amplitude after GABA alone. EC50 and Emax values were determined from average values for each concentration.

Chain of human GABAA receptors composed of the α1β2γ2 subunits (P14867 28-456 limits assumed): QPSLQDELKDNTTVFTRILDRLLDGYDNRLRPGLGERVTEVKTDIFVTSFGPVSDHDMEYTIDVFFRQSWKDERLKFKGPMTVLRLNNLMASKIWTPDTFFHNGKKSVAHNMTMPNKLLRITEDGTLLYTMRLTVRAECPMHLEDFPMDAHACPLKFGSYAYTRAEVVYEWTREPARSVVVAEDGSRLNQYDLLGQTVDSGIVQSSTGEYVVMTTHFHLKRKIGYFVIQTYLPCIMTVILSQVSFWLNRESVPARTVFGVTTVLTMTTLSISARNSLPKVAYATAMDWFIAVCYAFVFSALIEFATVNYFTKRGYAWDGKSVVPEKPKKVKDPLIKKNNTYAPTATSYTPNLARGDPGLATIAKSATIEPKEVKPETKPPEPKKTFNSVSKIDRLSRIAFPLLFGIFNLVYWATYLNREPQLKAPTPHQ
Chain of human GABAA receptors composed of the α1β2γ2 subunits (P47870 25-512 limits assumed): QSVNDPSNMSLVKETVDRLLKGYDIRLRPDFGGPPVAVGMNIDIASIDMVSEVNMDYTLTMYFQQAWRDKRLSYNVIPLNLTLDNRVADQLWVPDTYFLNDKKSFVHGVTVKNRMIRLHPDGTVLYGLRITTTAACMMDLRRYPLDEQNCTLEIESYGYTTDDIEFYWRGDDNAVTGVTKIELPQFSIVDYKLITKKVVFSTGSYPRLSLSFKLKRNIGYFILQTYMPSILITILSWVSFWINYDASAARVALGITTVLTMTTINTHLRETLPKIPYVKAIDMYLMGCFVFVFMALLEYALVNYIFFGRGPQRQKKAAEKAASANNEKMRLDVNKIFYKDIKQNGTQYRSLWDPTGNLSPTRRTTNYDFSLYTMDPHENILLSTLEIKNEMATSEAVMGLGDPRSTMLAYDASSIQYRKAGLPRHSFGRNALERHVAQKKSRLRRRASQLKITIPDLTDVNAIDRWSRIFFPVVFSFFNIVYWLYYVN
Chain of human GABAA receptors composed of the α1β2γ2 subunits (P18507 40-475 limits assumed): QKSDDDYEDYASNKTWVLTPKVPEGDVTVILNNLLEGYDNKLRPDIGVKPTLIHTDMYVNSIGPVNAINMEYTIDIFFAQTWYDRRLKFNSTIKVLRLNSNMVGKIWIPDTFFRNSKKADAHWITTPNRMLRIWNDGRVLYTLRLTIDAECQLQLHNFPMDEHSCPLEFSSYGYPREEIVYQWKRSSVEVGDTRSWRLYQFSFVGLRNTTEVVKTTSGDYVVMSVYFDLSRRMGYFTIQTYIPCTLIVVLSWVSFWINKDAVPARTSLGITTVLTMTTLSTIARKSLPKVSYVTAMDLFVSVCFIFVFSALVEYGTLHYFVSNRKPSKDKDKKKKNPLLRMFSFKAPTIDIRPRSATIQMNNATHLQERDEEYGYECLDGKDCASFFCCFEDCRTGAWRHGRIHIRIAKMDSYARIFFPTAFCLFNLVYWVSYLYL

SMILES | EC50 [µM]
CCC[C@@]1(O)CC[C@H]2[C@H](CC[C@@H]3[C@@H]2CC[C@]2(C)[C@@H]([C@@H](C)Cn4nnc(C)n4)[C@@H](O)C[C@@H]32)C1 [Example 365, (3R,5R,8R,9R,10S,13S,14S,16S,17R)-13-methyl-17-((R)-1-(5-methyl-2H-tetrazol-2-yl)propan-2-yl)-3-propylhexadecahydro-1H-cyclopenta[a]phenanthrene-3,16-diol] | ≥ 1
COC[C@@]1(O)CC[C@H]2[C@H](CC[C@@H]3[C@@H]2CC[C@]2(C)[C@@H]([C@@H](C)Cc4ccc(C(F)(F)F)nc4)CC[C@@H]32)C1 [Example 420] | < 0.2

target: human GABAA receptors composed of the α4β3δ subunits (Homo sapiens (Human), UniProt O14764+P28472+P48169); test: α4β3δ SyncroPatch automated patch clamp assay; assay type: cell-based; conditions: HEK cells, potentiation of submaximal GABA current, clamped at −120 mV
Method: as §1

Chain of human GABAA receptors composed of the α4β3δ subunits (P48169 36-554 limits assumed): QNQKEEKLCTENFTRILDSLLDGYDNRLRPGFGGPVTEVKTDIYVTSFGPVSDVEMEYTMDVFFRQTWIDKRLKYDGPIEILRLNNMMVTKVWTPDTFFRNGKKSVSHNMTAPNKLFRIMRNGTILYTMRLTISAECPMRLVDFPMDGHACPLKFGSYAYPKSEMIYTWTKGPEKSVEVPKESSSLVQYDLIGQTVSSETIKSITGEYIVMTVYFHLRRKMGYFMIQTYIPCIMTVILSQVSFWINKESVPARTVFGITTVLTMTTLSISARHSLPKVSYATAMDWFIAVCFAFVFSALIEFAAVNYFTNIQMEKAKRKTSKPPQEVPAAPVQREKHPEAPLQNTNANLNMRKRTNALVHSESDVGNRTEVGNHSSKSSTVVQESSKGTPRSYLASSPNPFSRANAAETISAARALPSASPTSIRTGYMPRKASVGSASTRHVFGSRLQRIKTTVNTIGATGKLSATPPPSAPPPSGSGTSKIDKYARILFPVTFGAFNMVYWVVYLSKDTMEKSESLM
Chain of human GABAA receptors composed of the α4β3δ subunits (P28472 26-473 limits assumed): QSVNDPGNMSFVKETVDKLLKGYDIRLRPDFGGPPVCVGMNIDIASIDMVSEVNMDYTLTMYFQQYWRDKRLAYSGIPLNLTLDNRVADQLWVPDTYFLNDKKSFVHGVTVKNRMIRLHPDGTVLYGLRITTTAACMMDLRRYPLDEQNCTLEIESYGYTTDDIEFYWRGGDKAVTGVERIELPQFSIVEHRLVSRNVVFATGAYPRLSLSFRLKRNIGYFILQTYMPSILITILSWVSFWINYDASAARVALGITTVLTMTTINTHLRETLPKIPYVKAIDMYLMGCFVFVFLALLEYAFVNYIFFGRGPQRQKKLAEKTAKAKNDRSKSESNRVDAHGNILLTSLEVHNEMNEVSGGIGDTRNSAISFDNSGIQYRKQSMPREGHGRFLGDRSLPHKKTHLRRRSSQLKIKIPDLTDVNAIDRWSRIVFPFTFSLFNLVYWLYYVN
Chain of human GABAA receptors composed of the α4β3δ subunits (O14764 17-452 limits assumed): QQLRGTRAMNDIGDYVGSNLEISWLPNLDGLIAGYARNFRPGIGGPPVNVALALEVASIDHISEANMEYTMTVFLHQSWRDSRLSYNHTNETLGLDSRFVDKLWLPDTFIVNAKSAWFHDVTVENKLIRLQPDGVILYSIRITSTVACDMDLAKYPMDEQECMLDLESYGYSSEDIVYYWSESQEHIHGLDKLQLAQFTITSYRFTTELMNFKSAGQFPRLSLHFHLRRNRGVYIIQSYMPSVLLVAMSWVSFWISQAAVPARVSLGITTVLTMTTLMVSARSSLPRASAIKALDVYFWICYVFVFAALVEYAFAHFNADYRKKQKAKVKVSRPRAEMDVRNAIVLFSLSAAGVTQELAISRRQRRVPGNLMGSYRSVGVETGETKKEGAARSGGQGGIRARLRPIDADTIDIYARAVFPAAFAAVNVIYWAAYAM

SMILES | EC50 [µM]
CCC[C@@]1(O)CC[C@H]2[C@H](CC[C@@H]3[C@@H]2CC[C@]2(C)[C@@H]([C@@H](C)Cn4nnc(C)n4)[C@@H](O)C[C@@H]32)C1 [Example 365, (3R,5R,8R,9R,10S,13S,14S,16S,17R)-13-methyl-17-((R)-1-(5-methyl-2H-tetrazol-2-yl)propan-2-yl)-3-propylhexadecahydro-1H-cyclopenta[a]phenanthrene-3,16-diol] | 0.2 to 1
COC[C@@]1(O)CC[C@H]2[C@H](CC[C@@H]3[C@@H]2CC[C@]2(C)[C@@H]([C@@H](C)Cc4ccc(C(F)(F)F)nc4)CC[C@@H]32)C1 [Example 420] | < 0.2
